Results as given in article PMC9909315, “SY-707, an ALK/FAK/IGF1R inhibitor, suppresses growth and metastasis of breast cancer cells” (Acta Biochimica et Biophysica Sinica, 2022).
Where two headings read alike, the source gives them in different places.

Experiments:
Pharmacokinetic study = format: in vivo, SD rats; conditions: SD, serum, Rat, 5 mg/kg PO; for CL/F: read-out: Cl_F_obs (converted); for MRT inf: read-out: MRT INF_obs
Description: […] […] The serum samples were collected by centrifugation and stored at –80 °C. Compound concentrations in the sample serums were further analyzed with an API-4000 LC-MS/MS system (Applied Biosystem, Foster City, USA), and pharmacokinetic parameters ( T 1/2, T max, C max, AUC 0-INF, Cl_F_obs, MRT INF_obs, and F(%)) were calcuated using the WinNonlin software (version 6.2; WinNonlin Professional, Pharsight, USA).

solid cancer cells = test: Cell proliferation assay, summary over the cell line series; format: cell-based; conditions: 72 h, read-out: IC50 values (summary over the solid cancer cell lines)
Description: MCF-7, T47D, MDA-MB-231, MIA Paca-2, PANC-1, SW620, HT-29, U87MG, and A549 cell lines were purchased from the Cell Bank of Chinese Academy of Science (Shanghai, China). Cells were cultured in DMEM or RPMI-1640 (Gibco, BRL, USA) supplemented with 10% FBS (HyClone, Logan, USA) and 50 IU penicillin/streptomycin in a humidified atmosphere with 5% CO 2 at 37°C. The effects of SY-707 on cell proliferation were measured using CellTiter-Glo ® or CellTiter-Blue ® Cell Viability Assay kits (Promega, Beijing, China). In brief, cells were seeded in 96-well plates at low destiny with 195 μL of medium per well. The stock solutions of compounds were 3-fold serially diluted with DMSO from 10 mM to 0.3 nM, and 4 μL of solution at each concentration was mixed with 96 μL of serum free medium, then 5 μL of the resulted solution was added to each well. […] The luminescence signals were measured using EnVision ® multilabel plate reader (PerkinElmer), and the fluorescent signals were examined using FlexStation 3 (Molecular Devices, Sunnyvale, USA), and the IC 50 values were calculated using Prism ® software (Version 5.0) and presented as the average of three independent experiments performed in duplicate.

[1] = tested on: phosphorylation of FAK at Tyr397; test: Western blot of FAK phosphorylation in MCF-7 cells; format: cell-based; conditions: MCF-7, 1 h treatment
Description: Equal amounts of cell lysates were loaded onto 10% SDS-PAGE gel and separated by electrophoresis. Separated proteins were then electro-transferred onto polyvinylidene fluoride (PVDF) membranes (Millipore, Bedford, USA). After being blocked with Tris-buffered saline containing 0.1% Tween-20 (TBST) and 5% bovine serum albumin (BSA), the membranes were incubated with primary antibodies at room temperature for 2 hours or at 4°C, then washed with TBST, followed by treatment with horseradish peroxidase (HRP)-conjugated goat anti-rabbit IgG secondary antibody at room temperature for another 1 h. The targeted protein bands were visualized using an enhanced chemiluminescence (ECL) plus system (Thermo Fisher Scientific). Primary antibodies against phospho-FAK (3283, 1:1000 dilution), phospho-ERK (4377, 1:2000 dilution), phospho-AKT (4060, 1:2000 dilution), FAK (3285, 1:1000 dilution), AKT (6703, 1:1000 dilution) and β-Actin (5125, 1:10,0000 dilution) were purchased from Cell Signaling Technology (Beverly, USA) and the HRP-conjugated goat anti-rabbit IgG (ZDR-5306, 1:10,000 dilution) was purchased from Jackson (West Grove, USA ).
Cells were cultured in 6-well plates and treated with the indicated concentrations of SY-707 for 1 h before stimulation with or without 100 ng/mL IGF1 for 10 min. Control cells received the drug vehicle with 0.1% DMSO. […]

ACK = ACK (Homo sapiens, UniProt Q07912); test: HTRF kinase enzyme assay; format: biochemical; conditions: ATP at Km
Description: (§1) Homogeneous time-resolved fluorescence (HTRF) assay was performed to analyze kinase enzyme activity and compound potency using HTRF ® KinEASE ^TM-TK kit (Cisbio Bioassays, Shanghai, China). Compound SY-707 was serially diluted by 3 folds from 1 mM stock solution in DMSO, and 4 μL of the diluted solution of the compounds was added to 96 μL of reaction buffer (50 mM HEPES, pH 7.0, 0.1 mM Na 3VO 4, 0.01% BAS, 5 mM MgCl 2, 1 mM DTT), then 2.5 μL of 4× compound solution and 5 μL of 2× kinases solution were added to a 384-well plate (OptiPlate-384; PerkinElmer, Wellesley, USA ). The resulted solutions were briefly mixed, centrifuged and incubated for 5 min. Finally, 2.5 μL of 4× ATP/TK peptide (ATP at K m for each kinase) solution was added to the reaction system to initiate the reaction. The enzymatic reaction was carried out for 60-120 min at 23°C, then terminated by addition of 5 μL of detection solution containing TK antibody-cryptate and 5 μL of Streptravidin-XL-665. The mixture was incubated for additional 1 h at 23°C. The fluorescent signals were measured with an EnVision multilabel plate reader (PerkinElmer). IC 50 values of the compounds were calculated using the GraFit software (Version 6.0) and presented as the mean of three independent experiments performed in duplicate.

IGF1R = IGF1R (Homo sapiens, UniProt P08069); test: HTRF kinase enzyme assay; format: biochemical; conditions: ATP at Km
Description: as §1

FES = FES (Homo sapiens, UniProt P07332); test: HTRF kinase enzyme assay; format: biochemical; conditions: ATP at Km
Description: as §1

IRK = IRK (Homo sapiens, UniProt P06213); test: HTRF kinase enzyme assay; format: biochemical; conditions: ATP at Km
Description: as §1

FER = FER (Homo sapiens, UniProt P16591); test: HTRF kinase enzyme assay; format: biochemical; conditions: ATP at Km
Description: as §1

PYK2 = PYK2 (Homo sapiens, UniProt Q14289); test: HTRF kinase enzyme assay; format: biochemical; conditions: ATP at Km
Description: as §1

[2] = tested on: 4T1 breast cancer metastasis to the lung; test: Metastasis analysis in vivo (lung nodules, 4T1 model); design: species or system nude mice; conditions: 4T1, treatment alone: SY-707 100 mg/kg/day PO; paclitaxel 10 or 20 mg/kg/week IV; 20 days; not statistically different
Description: Metastasis was detected in mouse lungs after the mice were sacrificed at the last dosing day. The lungs of each mouse were excised immediately and fixed with 4% paraformaldehyde for 24 h, then the lungs were photographed (three photographs per section per mouse) and the metastatic nodules in the lungs were manually counted and the data was analyzed for compound evaluation.
Mice were inoculated with 4T1 cells in PBS at right and left flanks expect the normal control group ( Figure 6A), SY-707 with or without paclitaxel was administered for 20 days when tumor volumes reached 150–300 mm ^3. The mice were sacrificed on the last day of drug administration, then the lungs were collected and metastatic nodules were counted manually for the evaluation of metastasis of 4T1 breast cancer.
The normal group (A) and the vehicle group which treatment with 20% SBE (B) were control. Mouse lungs were taken at the last day of treatment and fixed with 4% paraformaldehyde for 24 h, then the lungs were photographed and the metastatic nodules were counted manually for further analysis. *P<0.05, **P<0.01.

IRK, sequence (P06213 28-1382): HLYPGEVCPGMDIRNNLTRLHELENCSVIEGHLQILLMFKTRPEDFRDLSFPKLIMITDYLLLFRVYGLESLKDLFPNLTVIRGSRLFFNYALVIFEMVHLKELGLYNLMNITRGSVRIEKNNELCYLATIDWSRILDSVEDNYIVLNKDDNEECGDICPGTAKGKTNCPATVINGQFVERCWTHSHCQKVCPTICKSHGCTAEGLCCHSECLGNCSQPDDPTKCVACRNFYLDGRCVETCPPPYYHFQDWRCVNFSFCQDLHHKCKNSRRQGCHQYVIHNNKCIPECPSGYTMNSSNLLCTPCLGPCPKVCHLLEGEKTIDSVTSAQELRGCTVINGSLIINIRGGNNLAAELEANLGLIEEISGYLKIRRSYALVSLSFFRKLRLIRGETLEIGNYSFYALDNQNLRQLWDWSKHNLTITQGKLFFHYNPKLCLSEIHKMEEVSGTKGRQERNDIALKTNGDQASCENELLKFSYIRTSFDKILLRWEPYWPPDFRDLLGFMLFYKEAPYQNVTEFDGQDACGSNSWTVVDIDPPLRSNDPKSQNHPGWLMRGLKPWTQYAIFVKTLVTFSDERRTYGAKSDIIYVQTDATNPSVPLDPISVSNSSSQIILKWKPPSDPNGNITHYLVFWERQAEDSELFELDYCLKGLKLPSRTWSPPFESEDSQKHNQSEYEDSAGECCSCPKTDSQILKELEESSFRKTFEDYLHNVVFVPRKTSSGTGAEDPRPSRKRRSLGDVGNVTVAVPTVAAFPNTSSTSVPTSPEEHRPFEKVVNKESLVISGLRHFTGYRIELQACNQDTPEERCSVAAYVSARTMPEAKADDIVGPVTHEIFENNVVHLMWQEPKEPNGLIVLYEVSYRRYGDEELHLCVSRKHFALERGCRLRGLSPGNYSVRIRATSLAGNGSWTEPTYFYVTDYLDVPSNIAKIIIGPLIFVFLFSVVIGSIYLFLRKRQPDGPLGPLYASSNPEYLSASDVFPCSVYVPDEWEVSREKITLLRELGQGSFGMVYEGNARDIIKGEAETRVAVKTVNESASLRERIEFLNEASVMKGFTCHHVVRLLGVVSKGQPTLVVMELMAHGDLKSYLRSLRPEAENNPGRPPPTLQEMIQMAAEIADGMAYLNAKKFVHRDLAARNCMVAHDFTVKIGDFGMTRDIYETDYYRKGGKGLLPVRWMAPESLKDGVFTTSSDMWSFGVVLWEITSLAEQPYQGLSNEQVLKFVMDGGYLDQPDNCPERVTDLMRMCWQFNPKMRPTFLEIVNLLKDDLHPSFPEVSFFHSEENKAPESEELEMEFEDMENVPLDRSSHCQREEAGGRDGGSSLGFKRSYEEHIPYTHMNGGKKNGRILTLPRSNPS
FES, sequence (P07332 whole entry): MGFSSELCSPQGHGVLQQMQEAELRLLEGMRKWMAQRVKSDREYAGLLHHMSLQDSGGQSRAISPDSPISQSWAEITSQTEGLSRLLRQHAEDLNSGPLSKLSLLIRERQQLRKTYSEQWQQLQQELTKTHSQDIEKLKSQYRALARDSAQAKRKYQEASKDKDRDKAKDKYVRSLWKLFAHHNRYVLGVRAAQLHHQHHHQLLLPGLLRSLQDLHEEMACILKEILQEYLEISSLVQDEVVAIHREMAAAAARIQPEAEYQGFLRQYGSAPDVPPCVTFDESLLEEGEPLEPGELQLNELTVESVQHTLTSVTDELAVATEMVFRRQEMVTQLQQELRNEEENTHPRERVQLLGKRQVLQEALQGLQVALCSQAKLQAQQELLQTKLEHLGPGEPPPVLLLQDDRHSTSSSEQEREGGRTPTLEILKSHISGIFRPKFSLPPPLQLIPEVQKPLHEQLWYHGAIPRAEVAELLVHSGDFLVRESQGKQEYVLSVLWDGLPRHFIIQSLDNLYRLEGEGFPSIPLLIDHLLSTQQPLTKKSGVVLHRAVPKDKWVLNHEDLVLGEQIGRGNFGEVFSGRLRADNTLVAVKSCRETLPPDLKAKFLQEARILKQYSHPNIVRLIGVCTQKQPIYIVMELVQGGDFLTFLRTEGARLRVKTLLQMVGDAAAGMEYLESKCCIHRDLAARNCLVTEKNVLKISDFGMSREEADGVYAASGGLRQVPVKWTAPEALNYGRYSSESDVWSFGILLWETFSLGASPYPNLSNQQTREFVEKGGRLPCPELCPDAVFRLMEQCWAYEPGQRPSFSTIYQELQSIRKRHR
IGF1R, sequence (P08069 31-1367): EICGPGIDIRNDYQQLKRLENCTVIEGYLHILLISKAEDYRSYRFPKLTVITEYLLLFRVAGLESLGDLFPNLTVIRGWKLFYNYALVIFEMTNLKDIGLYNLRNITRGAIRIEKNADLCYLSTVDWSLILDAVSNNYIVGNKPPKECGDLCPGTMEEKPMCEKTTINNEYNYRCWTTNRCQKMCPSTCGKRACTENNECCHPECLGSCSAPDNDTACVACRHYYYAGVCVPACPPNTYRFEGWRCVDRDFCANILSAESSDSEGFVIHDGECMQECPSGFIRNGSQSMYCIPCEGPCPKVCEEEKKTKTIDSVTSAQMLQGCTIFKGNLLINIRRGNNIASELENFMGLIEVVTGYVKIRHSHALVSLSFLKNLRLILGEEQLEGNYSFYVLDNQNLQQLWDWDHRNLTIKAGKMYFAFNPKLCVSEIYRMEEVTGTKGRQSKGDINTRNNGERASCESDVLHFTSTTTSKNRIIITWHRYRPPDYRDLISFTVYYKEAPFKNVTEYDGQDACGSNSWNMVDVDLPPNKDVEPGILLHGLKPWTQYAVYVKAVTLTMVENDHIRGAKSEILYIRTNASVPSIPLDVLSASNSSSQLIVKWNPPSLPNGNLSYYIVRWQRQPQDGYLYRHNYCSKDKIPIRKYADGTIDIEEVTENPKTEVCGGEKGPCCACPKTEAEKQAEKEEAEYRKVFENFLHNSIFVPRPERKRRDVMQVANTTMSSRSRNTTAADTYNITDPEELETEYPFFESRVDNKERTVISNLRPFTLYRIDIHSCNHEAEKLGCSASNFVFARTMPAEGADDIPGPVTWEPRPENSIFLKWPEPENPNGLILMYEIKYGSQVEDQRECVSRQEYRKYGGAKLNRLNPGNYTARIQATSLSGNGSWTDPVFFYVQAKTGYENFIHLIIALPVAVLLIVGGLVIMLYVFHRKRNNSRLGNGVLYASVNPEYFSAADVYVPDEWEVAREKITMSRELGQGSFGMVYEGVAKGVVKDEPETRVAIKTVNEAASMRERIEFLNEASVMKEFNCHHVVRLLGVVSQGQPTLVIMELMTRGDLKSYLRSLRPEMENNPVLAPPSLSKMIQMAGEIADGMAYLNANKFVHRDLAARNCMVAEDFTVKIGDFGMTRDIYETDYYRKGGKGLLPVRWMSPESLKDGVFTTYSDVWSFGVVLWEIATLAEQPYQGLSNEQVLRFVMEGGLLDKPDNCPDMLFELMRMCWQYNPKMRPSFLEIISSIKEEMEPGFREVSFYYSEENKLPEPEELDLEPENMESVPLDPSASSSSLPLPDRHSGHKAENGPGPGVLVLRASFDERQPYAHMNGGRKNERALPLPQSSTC
ACK, sequence (Q07912 whole entry): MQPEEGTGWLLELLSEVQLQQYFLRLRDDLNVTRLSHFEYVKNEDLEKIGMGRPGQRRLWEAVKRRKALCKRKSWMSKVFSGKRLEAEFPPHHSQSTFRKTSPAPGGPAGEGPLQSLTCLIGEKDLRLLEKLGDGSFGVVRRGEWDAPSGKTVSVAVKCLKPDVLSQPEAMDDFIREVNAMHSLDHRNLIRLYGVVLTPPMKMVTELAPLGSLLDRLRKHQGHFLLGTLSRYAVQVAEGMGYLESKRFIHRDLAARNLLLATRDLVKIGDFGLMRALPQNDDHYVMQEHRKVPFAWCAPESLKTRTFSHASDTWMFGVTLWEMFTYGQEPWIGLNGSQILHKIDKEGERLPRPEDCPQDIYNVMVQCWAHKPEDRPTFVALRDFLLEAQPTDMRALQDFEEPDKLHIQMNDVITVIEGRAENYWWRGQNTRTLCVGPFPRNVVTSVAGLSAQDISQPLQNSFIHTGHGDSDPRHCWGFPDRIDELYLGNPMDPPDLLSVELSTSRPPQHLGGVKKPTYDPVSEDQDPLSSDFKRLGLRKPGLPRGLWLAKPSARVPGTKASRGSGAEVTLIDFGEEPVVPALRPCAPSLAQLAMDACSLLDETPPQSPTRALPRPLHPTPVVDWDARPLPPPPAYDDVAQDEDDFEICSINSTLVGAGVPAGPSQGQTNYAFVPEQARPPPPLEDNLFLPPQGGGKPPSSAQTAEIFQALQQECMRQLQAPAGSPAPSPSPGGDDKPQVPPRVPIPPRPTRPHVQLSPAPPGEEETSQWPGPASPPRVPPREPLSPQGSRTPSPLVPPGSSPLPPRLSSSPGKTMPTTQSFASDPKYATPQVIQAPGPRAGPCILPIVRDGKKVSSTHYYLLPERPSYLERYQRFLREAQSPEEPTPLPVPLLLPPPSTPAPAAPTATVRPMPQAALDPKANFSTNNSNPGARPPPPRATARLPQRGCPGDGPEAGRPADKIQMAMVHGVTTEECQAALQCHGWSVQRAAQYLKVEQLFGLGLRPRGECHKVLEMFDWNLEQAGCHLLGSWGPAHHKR

**Q.** Which AUC(0-inf) (Pharmacokinetic study; Female) does the source give for `COc1cc(N2CCC(N3CCN(C)CC3)CC2)ccc1Nc1nc2c(c(Nc3ccccc3S(=O)(=O)NC(C)C)n1)CCN2` [SY-707, N-isopropyl-2-((2-((2-methoxy-4-(4-(4-methylpiperazin-1-yl)piperidin-1-yl)phenyl)amino)-6,7-dihydro-5H-pyrrolo[2,3-d]pyrimidin-4-yl)amino)benzenesulfonamide] here?
**A.** Its AUC(0-inf) is 8590 ng·h/mL.

**Q.** And the Cmax (Pharmacokinetic study; Female)?
**A.** The Cmax was 639 ng/mL.

**Q.** And the Tmax (Pharmacokinetic study; Female)?
**A.** The Tmax was 4.33 h.

**Q.** What about the bioavailability (Pharmacokinetic study; Female) of the same compound?
**A.** The bioavailability was 33.2%.

**Q.** And the half-life (Pharmacokinetic study; Female)?
**A.** The half-life was 11.2 h.

**Q.** And the CL/F (Pharmacokinetic study; Female)?
**A.** The CL/F was 9.77 mL/min/kg.

**Q.** What about the MRT inf (Pharmacokinetic study; Female) of the same compound?
**A.** Its MRT inf is 13.8 h.

**Q.** And the AUC(0-inf) (Pharmacokinetic study; Male)?
**A.** Its AUC(0-inf) is 13300 ng·h/mL.

**Q.** What about the Cmax (Pharmacokinetic study; Male) of the same compound?
**A.** Its Cmax is 909 ng/mL.

**Q.** What about the Tmax (Pharmacokinetic study; Male) of the same compound?
**A.** Its Tmax is 3.33 h.

**Q.** And the bioavailability (Pharmacokinetic study; Male)?
**A.** The bioavailability was 38.3%.

**Q.** What about the half-life (Pharmacokinetic study; Male) of the same compound?
**A.** Its half-life is 13 h.

**Q.** And the CL/F (Pharmacokinetic study; Male)?
**A.** Its CL/F is 6.3 mL/min/kg.

**Q.** And the MRT inf (Pharmacokinetic study; Male)?
**A.** The MRT inf was 15.5 h.

**Q.** What about the AUC(0-inf) (Pharmacokinetic study; both sexes, All) of the same compound?
**A.** Its AUC(0-inf) is 11000 ng·h/mL.

**Q.** And the Cmax (Pharmacokinetic study; both sexes, All)?
**A.** Its Cmax is 774 ng/mL.

**Q.** And the Tmax (Pharmacokinetic study; both sexes, All)?
**A.** Its Tmax is 3.83 h.

**Q.** And the bioavailability (Pharmacokinetic study; both sexes, All)?
**A.** The bioavailability was 36.2%.

**Q.** And the half-life (Pharmacokinetic study; both sexes, All)?
**A.** The half-life was 12.1 h.

**Q.** What about the CL/F (Pharmacokinetic study; both sexes, All) of the same compound?
**A.** The CL/F was 8.03 mL/min/kg.

**Q.** And the MRT inf (Pharmacokinetic study; both sexes, All)?
**A.** Its MRT inf is 14.7 h.

**Q.** What about the IC50 (solid cancer cells) of the same compound?
**A.** Its IC50 is 500 to 10000 nM.

**Q.** And the “phosphorylation of FAK at Tyr397” value [1]?
**A.** The value was “dose-dependently suppressed”.

**Q.** And the IC50 (ACK)?
**A.** The IC50 was 28.7 ± 3.5 nM.

**Q.** What about the IC50 (IGF1R) of the same compound?
**A.** Its IC50 is 10.6 ± 0.58 nM.

**Q.** What about the IC50 (FES) of the same compound?
**A.** Its IC50 is 81.8 ± 19 nM.

**Q.** And the IC50 (IRK)?
**A.** Its IC50 is 7.9 ± 0.3 nM.

**Q.** What about the IC50 (FER) of the same compound?
**A.** Its IC50 is 52.3 ± 2.3 nM.

**Q.** What about the IC50 (PYK2) of the same compound?
**A.** The IC50 was 2.4 ± 0.8 nM.

**Q.** And the “number of metastatic nodules in the lungs vs vehicle group” value [2]?
**A.** Its value is “reduced the number of metastatic nodules”.
